In assay [1] the target is FGFR2 (Homo sapiens (Human), UniProt P21802). Briefly: FGFR2 Biochemical Caliper Assay. The method, then:
Compounds of the present invention were also tested in a FGFR2 Biochemical Caliper Assay. Compounds were prepared in 10 mM DMSO solution and serially diluted into 11 concentrations by 3-fold dilution. […] 5 uL of ATP solution (100 uM) was added to start the reaction and the plate was incubated for 90 minutes, then 70 uL of stopping buffer (0.5M EDTA) was added to terminate the reaction. Each well was analyzed using EZ reader.

The subject of assay [2] is SNU16 cells. Briefly: SNU16 Cancer Cell Line Proliferation Assay. Particulars: Homo sapiens; SNU-16 cells. Type of assay: cell-based. In short, it runs like this:
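Proliferation read-out: CellTiter Glo chemiluminescence after 96 h compound exposure. Test compounds, serially diluted 3-fold over 11 points from a 10 mM DMSO stock, were added to SNU16 cells plated 24 h earlier at 37 degrees.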

Structures are written as SMILES.

Results on 49 molecules are retold here after US11780845B2 (Relay Therapeutics, Inc., priority 2019, dated 2023).

FGFR2, sequence (P21802 22-821): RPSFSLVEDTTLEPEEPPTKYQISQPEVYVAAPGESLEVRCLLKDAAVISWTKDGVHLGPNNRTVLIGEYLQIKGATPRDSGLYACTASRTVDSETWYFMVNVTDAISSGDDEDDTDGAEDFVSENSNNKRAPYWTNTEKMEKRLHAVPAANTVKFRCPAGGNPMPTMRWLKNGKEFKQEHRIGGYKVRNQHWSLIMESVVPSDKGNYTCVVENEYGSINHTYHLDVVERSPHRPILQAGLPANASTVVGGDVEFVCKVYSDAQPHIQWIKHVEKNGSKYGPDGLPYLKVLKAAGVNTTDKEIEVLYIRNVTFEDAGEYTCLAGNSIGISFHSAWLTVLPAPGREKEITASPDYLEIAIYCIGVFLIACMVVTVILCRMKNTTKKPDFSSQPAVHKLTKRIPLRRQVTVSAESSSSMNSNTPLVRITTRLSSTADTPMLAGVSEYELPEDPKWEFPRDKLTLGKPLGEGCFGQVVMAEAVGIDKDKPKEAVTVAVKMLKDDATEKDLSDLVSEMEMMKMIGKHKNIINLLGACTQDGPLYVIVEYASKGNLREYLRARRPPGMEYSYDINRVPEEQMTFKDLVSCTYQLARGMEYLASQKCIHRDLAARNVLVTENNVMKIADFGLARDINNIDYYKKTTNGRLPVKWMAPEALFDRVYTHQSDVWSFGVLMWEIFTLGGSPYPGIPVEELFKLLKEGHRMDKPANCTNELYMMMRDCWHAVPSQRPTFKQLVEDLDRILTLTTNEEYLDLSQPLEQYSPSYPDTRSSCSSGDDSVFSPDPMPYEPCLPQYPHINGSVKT

For the molecule `C=CC(=O)Nc1ccc(-c2c(-c3ccc(ON4CCCC4)cc3)c3c(N)ncnc3n2C)c(C)c1` [Example 216], the IC50 in assay [1] was below 100 nM; in assay [2] it was at most 100 nM.

For `C=CC(=O)Nc1ccc(-c2c(-c3ccc(C(=O)N4CCCC4)cc3)c3c(N)ncnc3n2C)cc1F` [Example 217], the IC50 in assay [1] is below 100 nM; in assay [2], at most 100 nM.

On to `C=CC(=O)Nc1c(F)cc(-c2c(-c3ccc(C(=O)N4CCCC4)cc3)c3c(N)ncnc3n2C)cc1F` [Example 219], for which the IC50 in assay [1] was below 100 nM; in assay [2], at most 100 nM.

For `C=CC(=O)Nc1ccc(-c2c(-c3ccc(C(=O)N4CCCC4)cc3)c3c(N)ncnc3n2C)cc1C` [Example 220], the results for the half-inhibitory concentration (IC50) in assay [1] and in assay [2] were below 100 nM and at most 100 nM, respectively.

With `C=C(C)C(=O)Nc1ccc(-c2c(-c3ccc(OC4CCCC4)cc3)c3c(N)ncnc3n2C)cc1` [Example 223], the IC50 in assay [1] is below 100 nM; in assay [2], at most 100 nM.

Consider `C=C(C)C(=O)Nc1ccc(-c2c(-c3ccc(NC(=O)C4CCCC4)cc3)c3c(N)ncnc3n2C)cc1` [Example 224], for which the IC50 in assay [1] was below 100 nM; in assay [2] it was at most 100 nM.

On to `C=C(C)C(=O)Nc1ccc(-c2c(-c3ccc(C(=O)N(C)C4CCC4)cc3)c3c(N)ncnc3n2C)cc1` [Example 227], for which the IC50 in assay [1] and in assay [2] was 100 to 250 nM in each case.

As to `C=C(C)C(=O)Nc1ccc(-c2c(-c3ccc(C(=O)N4CCC5CC5C4)cc3)c3c(N)ncnc3n2C)cc1` (centres unmarked) [Example 228], the figures for the IC50 in assay [1] and in assay [2] were below 100 nM and at most 100 nM, respectively.

As to `C=C(C)C(=O)Nc1ccc(-c2c(-c3ccc(C(=O)N4CCC5CC54)cc3)c3c(N)ncnc3n2C)cc1` (centres unmarked) [Example 229], the IC50 in assay [1] is below 100 nM; in assay [2] it was at most 100 nM.

For `C=C(C)C(=O)Nc1ccc(-c2c(-c3ccc(C(=O)N4CCCCCC4)cc3)c3c(N)ncnc3n2C)cc1` [Example 230], the results for the half-maximal inhibitory concentration (IC50) in assay [1] and in assay [2] were below 100 nM and at most 100 nM, respectively.

As for `C=C(C)C(=O)Nc1ccc(-c2c(-c3ccc(C(=O)N(C)C4CCCC4)cc3)c3c(N)ncnc3n2C)cc1` [Example 233], the IC50 in assay [1] and in assay [2] was 100 to 250 nM in each case.

In the case of `C=C(C)C(=O)Nc1ccc(-c2c(-c3ccc(C(=O)N4CCC5(CC5)C4)cc3)c3c(N)ncnc3n2C)cc1` [Example 234], the IC50 in assay [1] is below 100 nM; in assay [2], at most 100 nM.

As to `C=C(C)C(=O)Nc1ccc(-c2c(-c3ccc(C(=O)N4CCCCC4=O)cc3)c3c(N)ncnc3n2C)cc1` [Example 236], the IC50 in assay [1] and in assay [2] was 100 to 250 nM each time.

`C=C(C)C(=O)Nc1ccc(-c2c(-c3ccc(C(=O)N4CC5CC5C4)cc3)c3c(N)ncnc3n2C)cc1` (centres unmarked) [Example 237]: the IC50 in assay [1] and in assay [2] was 100 to 250 nM each time.

As for `C=C(C)C(=O)Nc1ccc(-c2c(-c3ccc(C(=O)N4CC5CCC4CO5)cc3)c3c(N)ncnc3n2C)cc1` (centres unmarked) [Example 238], the IC50 in assay [1] and in assay [2] was 250 to 1000 nM each time.

For the molecule `C=C(C)C(=O)Nc1ccc(-c2c(-c3ccc(C(=O)N4CCCC5CC54)cc3)c3c(N)ncnc3n2C)cc1` (centres unmarked) [Example 239], the IC50 in assay [1] was below 100 nM; in assay [2], at most 100 nM.

In the case of `C=C(C)C(=O)Nc1ccc(-c2c(-c3ccc(C(=O)N4CC5(CCCC5)C4)cc3)c3c(N)ncnc3n2C)cc1` [Example 241], the values for the IC50 in assay [1] and in assay [2] were 1000 to 100000 nM and 250 to 1000 nM, respectively.

Turning to `C=C(C)C(=O)Nc1ccc(-c2c(-c3ccc(Cn4cccn4)cc3)c3c(N)ncnc3n2C)cc1` [Example 244], the values for the IC50 in assay [1] and in assay [2] were 1000 to 100000 nM and 250 to 1000 nM, respectively.

On to `C=C(C)C(=O)Nc1ccc(-c2c(-c3ccc(C(=O)N4CCC5(CCC5)C4)cc3)c3c(N)ncnc3n2C)cc1` [Example 245], for which the IC50 in assay [1] and in assay [2] was 250 to 1000 nM in each case.

With `C=C(C)C(=O)Nc1ccc(-c2c(-c3ccc(C(=O)N4CC5CCCCC5C4)cc3)c3c(N)ncnc3n2C)cc1` (centres unmarked) [Example 246], the IC50 in assay [1] lay in the range of 250 to 1000 nM; in assay [2], 100 to 250 nM.

Regarding `C=C(C)C(=O)Nc1ccc(-c2c(-c3ccc(C(=O)NCC(F)(F)F)cc3)c3c(N)ncnc3n2C)cc1` [Example 248], the IC50 was below 100 nM in assay [1] and at most 100 nM in assay [2].

As to `C=C(C)C(=O)Nc1ccc(-c2c(-c3ccc(C(=O)N4CC5COCC5C4)cc3)c3c(N)ncnc3n2C)cc1` (centres unmarked) [Example 249], the IC50 in assay [1] and in assay [2] was 250 to 1000 nM throughout.

In the case of `C=C(C)C(=O)Nc1ccc(-c2c(-c3ccc(C(=O)N4CCCC(C)C4)cc3)c3c(N)ncnc3n2C)cc1` (centres unmarked) [Example 255], the IC50 in assay [1] is below 100 nM; in assay [2], at most 100 nM.

For `C=C(C)C(=O)Nc1ccc(-c2c(-c3ccc(C(=O)Nc4ncccn4)cc3)c3c(N)ncnc3n2C)cc1` [Example 257], the IC50 in assay [1] and in assay [2] was 250 to 1000 nM in each case.

Turning to `C=C(C)C(=O)Nc1ccc(-c2c(-c3ccc(C(=O)N4CC5CCC4C5)cc3)c3c(N)ncnc3n2C)cc1` (centres unmarked) [Example 258], the IC50 in assay [1] is below 100 nM; in assay [2] it was at most 100 nM.

As for `C=CC(=O)Nc1ccc(-c2c(-c3ccc(Cn4nc(C)cc4C)cc3)c3c(N)ncnc3n2C)cc1` [Example 260], the IC50 was below 100 nM in assay [1] and at most 100 nM in assay [2].

For `C=C(C)C(=O)Nc1ccc(-c2c(-c3ccc(C(=O)N4CC5CCC4CC5)cc3)c3c(N)ncnc3n2C)cc1` [Example 262], the IC50 is below 100 nM in assay [1] and at most 100 nM in assay [2].

Turning to `C=C(C)C(=O)Nc1ccc(-c2c(-c3ccc(Cn4cc(C)cn4)cc3)c3c(N)ncnc3n2C)cc1` [Example 263], the half-maximal inhibitory concentration (IC50) is 1000 to 100000 nM in assay [1] and 250 to 1000 nM in assay [2].

As to `C=C(C)C(=O)Nc1ccc(-c2c(-c3ccc(C(=O)N4CCCC5(CC5)C4)cc3)c3c(N)ncnc3n2C)cc1` [Example 264], the IC50 in assay [1] is 100 to 250 nM; in assay [2] it was at most 100 nM.

Regarding `C=C(C)C(=O)Nc1ccc(-c2c(-c3ccc(C(=O)NC4CCC4)cc3)c3c(N)ncnc3n2C)cc1` [Example 265], the IC50 in assay [1] is below 100 nM; in assay [2], at most 100 nM.

With `C=C(C)C(=O)Nc1ccc(-c2c(-c3ccc(Cn4nccc4C)cc3)c3c(N)ncnc3n2C)cc1` [Example 266], the results for the IC50 in assay [1] and in assay [2] were 1000 to 100000 nM and 250 to 1000 nM, respectively.

`C=C(C)C(=O)Nc1ccc(-c2c(-c3ccc(Oc4ccn(C)n4)cc3)c3c(N)ncnc3n2C)cc1` [Example 267]: the results for the IC50 in assay [1] and in assay [2] were below 100 nM and at most 100 nM, respectively.

`C=C(C)C(=O)Nc1ccc(-c2c(-c3ccc(C(=O)N(C)Cc4nc(C)no4)cc3)c3c(N)ncnc3n2C)cc1` [Example 270]: the IC50 in assay [1] and in assay [2] was 250 to 1000 nM throughout.

Regarding `C=C(C)C(=O)Nc1ccc(-c2c(-c3ccc(C(=O)N4CC5CC4C5)cc3)c3c(N)ncnc3n2C)cc1` [Example 272], the concentration for half-maximal inhibition (IC50) in assay [1] is below 100 nM; in assay [2] it was at most 100 nM.

For the molecule `C=C(C)C(=O)Nc1ccc(-c2c(-c3ccc(Cn4ccc(C)n4)cc3)c3c(N)ncnc3n2C)cc1` [Example 274], the IC50 in assay [1] lay in the range of 100 to 250 nM; in assay [2] it was 250 to 1000 nM.

With `C=CC(=O)Nc1ccc(-c2c(-c3ccc(Oc4ccn(C)n4)cc3)c3c(N)ncnc3n2C)cc1` [Example 276], the half-maximal inhibitory concentration (IC50) is below 100 nM in assay [1] and at most 100 nM in assay [2].

`C=C(C)C(=O)Nc1ccc(-c2c(-c3ccc(C(=O)NCc4ncon4)cc3)c3c(N)ncnc3n2C)cc1` [Example 282]: the IC50 lay in the range of 100 to 250 nM in assay [1] and 250 to 1000 nM in assay [2].

`C=C(C)C(=O)Nc1ccc(-c2c(-c3ccc(C(=O)NC4CCOC4)cc3)c3c(N)ncnc3n2C)cc1` (centres unmarked) [Example 283]: the IC50 was below 100 nM in assay [1] and at most 100 nM in assay [2].

Turning to `C=C(C)C(=O)Nc1ccc(-c2c(-c3ccc(C(=O)NCC(C)(C)O)cc3)c3c(N)ncnc3n2C)cc1` [Example 288], the IC50 in assay [1] was below 100 nM; in assay [2], 250 to 1000 nM.

For `C=C(C)C(=O)Nc1ccc(-c2c(-c3ccc(C(=O)NC4COC4)cc3)c3c(N)ncnc3n2C)cc1` [Example 289], the IC50 in assay [1] and in assay [2] was 250 to 1000 nM each time.

As to `C=C(C)C(=O)Nc1ccc(-c2c(-c3ccc(C(=O)N[C@@H](CO)C4CC4)cc3)c3c(N)ncnc3n2C)cc1` [Example 290], the IC50 is below 100 nM in assay [1] and 100 to 250 nM in assay [2].

Consider `C=C(C)C(=O)Nc1ccc(-c2c(-c3ccc(C(=O)N4CC5CCC5C4)cc3)c3c(N)ncnc3n2C)cc1` (centres unmarked) [Example 291], for which the IC50 is below 100 nM in assay [1] and at most 100 nM in assay [2].

As to `C=C(C)C(=O)Nc1ccc(-c2c(-c3ccc(C(=O)N4CCCC[C@@H]4C)cc3)c3c(N)ncnc3n2C)cc1` [Example 292], the IC50 in assay [1] is below 100 nM; in assay [2], at most 100 nM.

With `C=C(C)C(=O)Nc1ccc(-c2c(-c3ccc(C(=O)N4CCCC[C@H]4C)cc3)c3c(N)ncnc3n2C)cc1` [Example 293], the IC50 in assay [1] is below 100 nM; in assay [2], at most 100 nM.

Regarding `C=C(C)C(=O)Nc1ccc(-c2c(-c3ccc(C(=O)N(C)Cc4cnn(C)c4)cc3)c3c(N)ncnc3n2C)cc1` [Example 294], the IC50 in assay [1] is 1000 to 100000 nM; in assay [2], 250 to 1000 nM.

`C=C(C)C(=O)Nc1ccc(-c2c(-c3ccc(C(=O)Nc4ncon4)cc3)c3c(N)ncnc3n2C)cc1` [Example 295]: the IC50 in assay [1] was 1000 to 100000 nM; in assay [2], 250 to 1000 nM.

On to `C=CC(=O)Nc1ccc(-c2c(C3=CCC(C(=O)N(C)C)CC3)c3c(N)ncnc3n2C)cc1` (centres unmarked) [Example 296], for which the IC50 was below 100 nM in assay [1] and at most 100 nM in assay [2].

Regarding `C=CC(=O)Nc1ccc(-c2c(C3=CCC(C(=O)N4CCCC4)CC3)c3c(N)ncnc3n2C)cc1` (centres unmarked) [Example 297], the IC50 in assay [1] is below 100 nM; in assay [2] it was at most 100 nM.

With `C=CC(=O)Nc1ccc(-c2c(C3=CCC(C(=O)NC4CCCC4)CC3)c3c(N)ncnc3n2C)cc1` (centres unmarked) [Example 298], the values for the IC50 in assay [1] and in assay [2] were below 100 nM and at most 100 nM, respectively.
